Tests used:
S. aureus DSM 20231 [1] = test: fitness (endpoint OD595 vs no drug) (fraction); higher = more growth
How it was run: (§1)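 Fitness was measured as bacterial growth in 384-well plates inoculated at OD595 0.01 (30 µl, or 55 µl for S. pneumoniae). Media were TSB, LB Lennox or CY, at 37 °C. OD595 was read every 30 min for 14 h and background-subtracted against the first reading. Fitness is OD595 at the transition into stationary phase divided by the robust mean of no-drug control wells, capped at 1.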

S. aureus Newman [2] = test: as above
How it was run: as §1

B. subtilis 168 = test: Bliss interaction score (quartile over a dose matrix) (fitness difference); higher = more antagonism (negative = synergy)
How it was run: (§2)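 OD595 was read at entry into stationary phase and expressed relative to the robust mean of the no-drug wells on the same plate, capped at 1. The resulting ratio is the fitness value. The Bliss score, observed fitness minus product-based expected fitness with single-drug fitness inferred from combinations, is summarised by quartiles over technical, biological and donor/recipient replicates.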

S. aureus DSM 20231 [3] = test: as above
How it was run: as §2

S. aureus Newman [4] = test: as above
How it was run: as §2

S. pneumoniae D39V = test: as above
How it was run: as §2
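Throughout, for Bliss interaction score (quartile over a dose matrix): first quartile when negative (synergy) and third quartile when positive (antagonism).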

O=C(N[C@H](CO)[C@H](O)c1ccc([N+](=O)[O-])cc1)C(Cl)Cl [Chloramphenicol] + C[n+]1ccc(-c2cc[n+](C)cc2)cc1 [Paraquat]
fitness
Details	first compound 0.75 µg/mL	first compound 1.5 µg/mL	first compound 3 µg/mL
S. aureus DSM 20231 [1], partner 1.25 µg/mL	0.684	0.564	0.121
S. aureus DSM 20231 [1], partner 2.5 µg/mL	0.711	0.626	0.159
S. aureus DSM 20231 [1], partner 5 µg/mL	0.688	0.618	0.158
S. aureus Newman [2], partner 1.25 µg/mL	0.724	0.423	0.164
S. aureus Newman [2], partner 2.5 µg/mL	0.715	0.429	0.15
S. aureus Newman [2], partner 5 µg/mL	0.739	0.476	–

Details	Bliss interaction score
B. subtilis 168	0.0402
S. aureus DSM 20231 [3]	0.0604
S. aureus Newman [4]	-0.058
S. pneumoniae D39V	0.0595

O=C(N[C@H](CO)[C@H](O)c1ccc([N+](=O)[O-])cc1)C(Cl)Cl [Chloramphenicol] + Cc1cc(NS(=O)(=O)c2ccc(N)cc2)no1 [Sulfamethoxazol]
fitness
Details	first compound 0.75 µg/mL	first compound 1.5 µg/mL	first compound 3 µg/mL
S. aureus DSM 20231 [1], partner 1 µg/mL	0.614	0.541	0.115
S. aureus DSM 20231 [1], partner 2 µg/mL	0.652	0.526	0.102
S. aureus DSM 20231 [1], partner 4 µg/mL	0.709	0.49	–
S. aureus Newman [2], partner 1 µg/mL	0.837	0.583	0.199
S. aureus Newman [2], partner 2 µg/mL	0.899	0.652	0.172
S. aureus Newman [2], partner 4 µg/mL	0.909	0.647	0.179

S. aureus Newman [2], partner 8 µg/mL, one replicate
Details	fitness
first compound 0.75 µg/mL	0.889
first compound 1.5 µg/mL	0.694
first compound 3 µg/mL	0.35

Details	Bliss interaction score
B. subtilis 168	0.0483
S. aureus DSM 20231 [3]	-0.0341
S. aureus Newman [4]	0.0702
S. pneumoniae D39V	-0.0682

O=C(N[C@H](CO)[C@H](O)c1ccc([N+](=O)[O-])cc1)C(Cl)Cl [Chloramphenicol] + Cc1onc(-c2ccccc2)c1C(=O)N[C@@H]1C(=O)N2[C@@H]1SC(C)(C)[C@@H]2C(=O)O [Oxacillin]
fitness
Details	first compound 0.75 µg/mL	first compound 1.5 µg/mL	first compound 3 µg/mL
S. aureus DSM 20231 [1], partner 0.0156 µg/mL	0.677	0.461	–
S. aureus DSM 20231 [1], partner 0.0312 µg/mL	0.6	0.392	0.113
S. aureus DSM 20231 [1], partner 0.0625 µg/mL	0.489	0.478	0.0972
S. aureus Newman [2], partner 0.0156 µg/mL	0.734	0.573	0.253
S. aureus Newman [2], partner 0.0312 µg/mL	0.617	0.484	0.143
S. aureus Newman [2], partner 0.0625 µg/mL	0.555	0.359	–

Details	Bliss interaction score
B. subtilis 168	-0.0473
S. aureus DSM 20231 [3]	0.0696
S. aureus Newman [4]	0.0445
S. pneumoniae D39V	0.0937

O=C(N[C@H](CO)[C@H](O)c1ccc([N+](=O)[O-])cc1)C(Cl)Cl [Chloramphenicol] + Cn1nnc(-c2ccc(-c3ccc(N4C[C@H](CO)OC4=O)cc3F)cn2)n1 [Tedizolid]
fitness
Details	partner 0.0625 µg/mL	partner 0.125 µg/mL	partner 0.25 µg/mL
S. aureus DSM 20231 [1], first compound 0.75 µg/mL	0.584	0.538	0.189
S. aureus DSM 20231 [1], first compound 1.5 µg/mL	0.412	0.285	0.168
S. aureus DSM 20231 [1], first compound 3 µg/mL	0.0827	0.07	0.0466
S. aureus Newman [2], first compound 3 µg/mL	–	0.095	0.0603

Details	Bliss interaction score
B. subtilis 168	-0.101
S. aureus DSM 20231 [3]	-0.157
S. aureus Newman [4]	-0.179
S. pneumoniae D39V	-0.068

CCC[C@@H]1C[C@@H](C(=O)N[C@@H]([C@H]2O[C@H](SC)[C@H](O)[C@@H](O)[C@H]2O)[C@H](C)Cl)N(C)C1 [Clindamycin] + CCCCCCCCCC(=O)N[C@@H]1[C@H]([C@@H]([C@H](O[C@H]1OC2=C3C=C4C=C2OC5=C(C=C(C=C5)[C@H]([C@H]6C(=O)N[C@@H](C7=C(C(=CC(=C7)O)OC8[C@H]([C@H]([C@@H]([C@H](O8)CO)O)O)O)C9=C(C=CC(=C9)[C@H](C(=O)N6)NC(=O)[C@@H]4NC(=O)[C@@H]1C2=CC(=CC(=C2)OC2=C(C=CC(=C2)[C@H](C(=O)N[C@H](CC2=CC(=C(O3)C=C2)Cl)C(=O)N1)N)O)O)O)C(=O)O)O[C@H]1[C@@H]([C@H]([C@@H]([C@H](O1)CO)O)O)NC(=O)C)Cl)CO)O)O [Teicoplanin]
fitness, main component drawn
Details	partner 0.1562 µg/mL	partner 0.3125 µg/mL	partner 0.625 µg/mL
S. aureus DSM 20231 [1], first compound 0.125 µg/mL	0.0489	0.0449	0.0526
S. aureus Newman [2], first compound 0.0312 µg/mL	0.679	0.864	0.854
S. aureus Newman [2], first compound 0.0625 µg/mL	0.448	0.431	0.483
S. aureus Newman [2], first compound 0.125 µg/mL	0.0629	0.0636	0.0614

fitness, S. aureus Newman [2], one replicate, main component drawn
Details	first compound 0.0312 µg/mL	first compound 0.0625 µg/mL	first compound 0.125 µg/mL
partner 0.62 µg/mL	0.86	0.74	0.358
partner 1.24 µg/mL	0.938	0.839	0.307
partner 2.48 µg/mL	0.755	0.726	0.154

main component drawn
Details	Bliss interaction score
B. subtilis 168	-0.117
S. aureus DSM 20231 [3]	0.0389
S. aureus Newman [4]	0.137
S. pneumoniae D39V	-0.0604

O=C(O[C@@H]1Cc2c(O)cc(O)cc2O[C@@H]1c1cc(O)c(O)c(O)c1)c1cc(O)c(O)c(O)c1 [EGCG] + CCCCCCCCCC(=O)N[C@@H]1[C@H]([C@@H]([C@H](O[C@H]1OC2=C3C=C4C=C2OC5=C(C=C(C=C5)[C@H]([C@H]6C(=O)N[C@@H](C7=C(C(=CC(=C7)O)OC8[C@H]([C@H]([C@@H]([C@H](O8)CO)O)O)O)C9=C(C=CC(=C9)[C@H](C(=O)N6)NC(=O)[C@@H]4NC(=O)[C@@H]1C2=CC(=CC(=C2)OC2=C(C=CC(=C2)[C@H](C(=O)N[C@H](CC2=CC(=C(O3)C=C2)Cl)C(=O)N1)N)O)O)O)C(=O)O)O[C@H]1[C@@H]([C@H]([C@@H]([C@H](O1)CO)O)O)NC(=O)C)Cl)CO)O)O [Teicoplanin]
fitness, main component drawn
Details	first compound 12.5 µg/mL	first compound 25 µg/mL	first compound 50 µg/mL
S. aureus DSM 20231 [1], partner 0.1562 µg/mL	0.846	0.833	0.892
S. aureus DSM 20231 [1], partner 0.3125 µg/mL	0.957	0.968	0.959
S. aureus DSM 20231 [1], partner 0.625 µg/mL	0.935	≥ 1	–
S. aureus Newman [2], partner 0.1562 µg/mL	0.833	0.805	0.749
S. aureus Newman [2], partner 0.3125 µg/mL	0.716	0.824	0.698
S. aureus Newman [2], partner 0.625 µg/mL	0.819	0.806	0.823

fitness, S. aureus Newman [2], one replicate, main component drawn
Details	first compound 12.5 µg/mL	first compound 25 µg/mL	first compound 50 µg/mL
partner 0.62 µg/mL	0.62	0.662	0.558
partner 1.24 µg/mL	0.646	0.604	0.565
partner 2.48 µg/mL	0.538	0.51	0.475

main component drawn
Details	Bliss interaction score
B. subtilis 168	-0.096
S. aureus DSM 20231 [3]	0.125
S. aureus Newman [4]	0.0918
S. pneumoniae D39V	0.0672

COc1c(N2C[C@@H]3CCCN[C@@H]3C2)c(F)cc2c(=O)c(C(=O)O)cn(C3CC3)c12 [Moxifloxacin] + CCCCCCCCCC(=O)N[C@@H]1[C@H]([C@@H]([C@H](O[C@H]1OC2=C3C=C4C=C2OC5=C(C=C(C=C5)[C@H]([C@H]6C(=O)N[C@@H](C7=C(C(=CC(=C7)O)OC8[C@H]([C@H]([C@@H]([C@H](O8)CO)O)O)O)C9=C(C=CC(=C9)[C@H](C(=O)N6)NC(=O)[C@@H]4NC(=O)[C@@H]1C2=CC(=CC(=C2)OC2=C(C=CC(=C2)[C@H](C(=O)N[C@H](CC2=CC(=C(O3)C=C2)Cl)C(=O)N1)N)O)O)O)C(=O)O)O[C@H]1[C@@H]([C@H]([C@@H]([C@H](O1)CO)O)O)NC(=O)C)Cl)CO)O)O [Teicoplanin]
fitness, main component drawn
Details	first compound 0.0075 µg/mL	first compound 0.015 µg/mL	first compound 0.03 µg/mL
S. aureus DSM 20231 [1], partner 0.1562 µg/mL	0.912	0.852	0.748
S. aureus DSM 20231 [1], partner 0.3125 µg/mL	≥ 1	0.94	0.752
S. aureus DSM 20231 [1], partner 0.625 µg/mL	≥ 1	0.991	0.745
S. aureus Newman [2], partner 0.1562 µg/mL	0.773	0.597	0.0859
S. aureus Newman [2], partner 0.3125 µg/mL	0.797	0.577	0.0839
S. aureus Newman [2], partner 0.625 µg/mL	0.717	–	0.06

fitness, one replicate, main component drawn
Details	partner 0.1562 µg/mL	partner 0.3125 µg/mL	partner 0.62 µg/mL	partner 0.625 µg/mL	partner 1.24 µg/mL	partner 2.48 µg/mL
S. aureus DSM 20231 [1], first compound 0.06 µg/mL	0.665	0.7	–	0.697	–	–
S. aureus DSM 20231 [1], first compound 0.12 µg/mL	0.497	0.468	–	0.513	–	–
S. aureus Newman [2], first compound 0.0075 µg/mL	–	–	0.679	–	0.608	0.337
S. aureus Newman [2], first compound 0.015 µg/mL	–	–	0.608	–	0.488	0.0713
S. aureus Newman [2], first compound 0.03 µg/mL	–	–	0.0881	–	0.0113	0.0176

main component drawn
Details	Bliss interaction score
B. subtilis 168	-0.0201
S. aureus DSM 20231 [3]	0.0596
S. aureus Newman [4]	-0.0744
S. pneumoniae D39V	-0.0767

CCCCCCCCCC(=O)N[C@H]1[C@H](Oc2c3cc4cc2Oc2ccc(cc2Cl)[C@@H](O[C@@H]2O[C@H](CO)[C@@H](O)[C@H](O)[C@H]2NC(C)=O)[C@@H]2NC(=O)[C@H](NC(=O)[C@@H]4NC(=O)[C@H]4NC(=O)[C@@H](Cc5ccc(c(Cl)c5)O3)NC(=O)[C@H](N)c3ccc(O)c(c3)Oc3cc(O)cc4c3)c3ccc(O)c(c3)-c3c(O[C@H]4O[C@H](CO)[C@@H](O)[C@H](O)[C@@H]4O)cc(O)cc3[C@@H](C(=O)O)NC2=O)O[C@H](CO)[C@@H](O)[C@@H]1O [Teicoplanin] + CC1=C\[C@@H](O)CC(=O)Cc2nc(co2)C(=O)N2CCC=C2C(=O)O[C@H](C(C)C)[C@H](C)/C=C/C(=O)NC\C=C\1 [Virginiamycin M1]
fitness, S. aureus DSM 20231 [1], main component drawn
Details	first compound 0.1562 µg/mL	first compound 0.3125 µg/mL	first compound 0.625 µg/mL
partner 0.0625 µg/mL	0.996	≥ 1	≥ 1
partner 0.125 µg/mL	≥ 1	≥ 1	≥ 1
partner 0.25 µg/mL	≥ 1	≥ 1	≥ 1

fitness, one replicate, main component drawn
Details	first compound 0.1562 µg/mL	first compound 0.3125 µg/mL	first compound 0.62 µg/mL	first compound 0.625 µg/mL	first compound 1.24 µg/mL	first compound 2.48 µg/mL
S. aureus DSM 20231 [1], partner 0.5 µg/mL	≥ 1	≥ 1	–	≥ 1	–	–
S. aureus DSM 20231 [1], partner 1 µg/mL	0.864	0.861	–	≥ 1	–	–
S. aureus Newman [2], partner 0.0625 µg/mL	≥ 1	0.97	0.773	0.843	0.78	0.473
S. aureus Newman [2], partner 0.125 µg/mL	≥ 1	≥ 1	0.784	0.774	0.764	0.529
S. aureus Newman [2], partner 0.25 µg/mL	≥ 1	≥ 1	0.831	0.839	0.766	0.486
S. aureus Newman [2], partner 0.5 µg/mL	0.945	0.989	–	≥ 1	–	–
S. aureus Newman [2], partner 1 µg/mL	≥ 1	0.971	–	≥ 1	–	–
S. aureus Newman [2], partner 2 µg/mL	0.876	0.951	–	≥ 1	–	–

main component drawn
Details	Bliss interaction score
B. subtilis 168	0.117
S. aureus DSM 20231 [3]	0.101
S. aureus Newman [4]	0.0746
S. pneumoniae D39V	0.262

Reference: the supplement of paper PMC10627819
